Test results taken from US12521564B2, “Method and apparatus for oncomagnetic treatment” (THE METHODIST HOSPITAL, priority 2020, dated 2026).
Entries after “also recorded” stand apart in the source; their conditions may differ.

Assays:
GBM cells [1] = conditions: FCCP added after 2-3 OMF stimulation cycles
Experimental: In cultured GBM156 cells 10-minute stimulation/pause cycles were used to provoke a MPT response.
Oxygen electrode data collection: A thermostatically controlled (37° C.), water-jacketed, glass-walled, Clark-type O2 electrode was used throughout. […] The oncoscillator was attached to the end of a microphone stand and was held perpendicular to the outer glass wall of the electrode, so that there was an air gap of ≈5 mm between the two devices. There was a degree of crosstalk between to stirring bar of the O2-electrode chamber and the oncoscillator; this interaction manifests itself as jumps or drops in the apparent O2 concentrations at the beginning or the end of OMF stimulation. […] The stirrer velocity was therefore optimized to negate the interaction with the oncoscillator.
Tumor culture preparations: GBM and meningioma tumors were taken at the time of (first) excision and given the laboratory ID. They were washed in PBS, chopped with a scalpel and homogenized in a BeadBug™ homogenizer using 1.5 mm Zirconium beads, in an equal volume of PBS. […] The homogenates were grown in DMEM with 20% FBS, 1U GlutaMax™, sodium pyruvate (1 mM), penicillin (100 U/ml), and streptomycin (100 mg/ml). […]
Cells were grown to confluency, counted, harvested using trypsin, washed in ice-cold PBS and stored on ice at 8×10^9 cells/ml. O2 consumption of cells was measured in PBS, 10 mM glucose, 37° C. […]

GBM cells [2] = test: Surviving cell count after OMF stimulation in presence of drugs; format: cell-based, human
Text: Histograms of the percentage of cells plotted against the normalized fluorescence intensity (ratio of intensity to the width of the forward scatter) measured by flow cytometry of H2DCF-stained GBM (U87) and normal astroglial (SVGp12) cells reveal nearly a two-fold increase in GBM cells due to OMF, but a ˜50% decrease in astroglial cells (FIG. 44). To test whether cell death is caused by the OMF-induced increase in ROS, a potent antioxidant Trolox was used to counteract it, while measuring the decrease in GBM cell count due to 4 h exposure to OMF. Conversely, it also was asked whether OMF potentiates the cell killing effect of a known ROS inducer, benzylamine. […] Magnetically influenced RPM plays a role in ubiquitously expressed flavoproteins called cryptochromes, which can also generate ROS when perturbed by magnetic fields. Cryptochrome agonists have been recently shown to inhibit cancer stem cell proliferation in GBM. This alternative possibility for generation of ROS by OMF was tested by counting surviving cells after two 4 h sessions of OMF stimulation over 24 h in the presence and absence of a cryptochrome antagonist, KS15. […] According to a certain setup, cells grown in 96-well cell culture plates were OMF stimulated, sham stimulated or unstimulated for 4 h inside humidified CO2 incubator. Paraformaldehyde (4% w/v in PBS) was used for fixation and DAPI was used for staining nuclei. […] Live and dead cell images were captured at 10× magnification on a Nikon Eclipse TE2000-E microscope and analyzed with NIS-Element program or a Carl Zeiss Axio Observer microscope with an onstage incubation chamber having a humidified 5% CO2 supply. […] […] To do this surviving cells were counted after two 4 h sessions of OMF stimulation over 24 h in the presence and absence of a cryptochrome antagonist, KS15.

DIPG cells = test: O2 consumption of primary DIPG cells under OMF stimulation cycles; format: cell-based, human; conditions: 5 μM bongkrekic acid
Text: Before OMF stimulation the O2 consumption rate is ≈40 pMol O2 sec^−1 million cells^−1, similar to that seen in Chinese hamster ovary cells (100%). During the first five minutes of OMF stimulation cycle, respiration rate falls by a third, and during the first fifteen-minute pause this respiration rate remains at 65% of the initial rate. During the second stimulation cycle, respiration falls to only 45% of the control rate. When the cycle ends the rate rises to 58%, but over the 15-minute pause the flux slows down. During the third stimulation cycle, O2 consumption is held at half the initial rate, but when stimulation ceases a rapid increase in respiration is observed, which increases over the first 10 min and then begins to slow.
The large increase in mitochondrial electron flux that is observed at the end of the third cycle is consistent with a relatively homogenous population of cells, all undergoing MPT simultaneously. To test if this is the correct interpretation of the data, the experiment was rerun, but this time in the presence of 5 μM bongkrekic acid (FIG. 20B). Blocking the ANT with bongkrekic acid slows the steady state mitochondrial electron flux to 55% of that seen in its absence (both rates arc normalized to 100% in each panel for case of interpretation). […]
O2 consumption of cells was measured in PBS, 10 mM glucose, 37° C. […]

[3] = system: rat liver mitochondria (RLM); test: O2 electrode trace of rat liver mitochondria metabolizing succinate under OMF stimulation; format: biochemical; conditions: 5 μM bongkrekic acid, RLM metabolizing 5 mM succinate
Experimental: FIG. 18A illustrates an apparatus 1800 used to perform the procedures outlined above. The apparatus 1800 includes oncoscillator component and generates OMF by rotating an N52 permanent Neodymium rare earth magnet. The oncoscillator assembly is held by a microphone stand, placed next to the water jacketed O2 electrode with a 5 mm air gap, halting vibration transfer. The oncoscillator is positioned so that the center of 1 ml media chamber is exposed to a magnetic field of ≈8 mT. The rotation of the oncoscillator magnet has a small artifactual effect on the O2 electrode stirrer bar giving rise to an apparent drop or rise in O2 levels.
The effect of OMF on energized rat liver mitochondria (RLM) was examined. […] After the addition of succinate the slow ‘State 4’ consumption of O2 (≈10 e^−s^−1) that is typical of RLM oxidizing succinate in the absence of ADP (‘State 3’) or uncouplers is observed. In state 4 the electron flux from succinate dehydrogenase, the bc1 complex and cytochrome c oxidase is controlled by the presence of a large membrane potential (ΔΨ) and ΔpH, estimated to be […] and 11 mV, respectively, under similar conditions.
When OMF stimulation is initiated, respiration is completely halted for the whole 5-min OMF stimulation period. […] After this second stimulation regime ended, respiration restarted at the rate recorded prior to the stimulation cycle. […]

[4] = system: high-grade meningioma cells; test: O2 consumption of primary high-grade meningioma cells under OMF stimulation cycles; format: cell-based, human; conditions: cells pretreated with bongkrekic acid
Text: FIG. 21 follows the format of FIG. 20, but this time primary high-grade meningioma cells were used, showing that OMF stimulation cycles cause MPT. In these cells stimulation causes a 75% drop in the electron flux, and after the end of the first cycle, the cells maintain only half their initial rate (FIG. 21A). During the second cycle of stimulation mitochondrial respiration is completely halted, and as soon as the stimulation stops there is a burst of O2 uptake ≥6 times the initial steady state level. This rate drops in a first order manner.
Oxygen electrode data collection: A thermostatically controlled (37° C.), water-jacketed, glass-walled, Clark-type O2 electrode was used throughout. […] There was a degree of crosstalk between to stirring bar of the O2-electrode chamber and the oncoscillator; this interaction manifests itself as jumps or drops in the apparent O2 concentrations at the beginning or the end of OMF stimulation.
The homogenates were grown in DMEM with 20% FBS, 1U GlutaMax™, sodium pyruvate (1 mM), penicillin (100 U/ml), and streptomycin ([…]).
O2 consumption of cells was measured in PBS, 10 mM glucose, 37° C. 2 μM carbonyl cyanide trifluoromethoxyphenylhydrazone.

N#CC(C#N)=NNc1ccc(OC(F)(F)F)cc1 [FCCP, carbonyl cyanide-p-trifluoromethoxyphenylhydrazone]
O2 consumption after addition of FCCP (GBM cells [1]): did not lead to an increase in O2 consumption

CCO[C@H](Cc1cccc(/C(C)=N/OCc2ccc(Br)cc2)c1)C(=O)O [KS15]
effect on the decrease in cell count produced by OMF (GBM cells [2]; two 4 h sessions of OMF stimulation over 24 h, presence vs absence of KS15): significant partial attenuation

Cc1c(C)c2c(c(C)c1O)CCC(C)(C(=O)O)O2 (stereo not drawn) [Trolox]
counteraction of the decrease in GBM cell count due to OMF-induced ROS (GBM cells [2]; 4 h exposure to OMF, antioxidant Trolox): predictions are confirmed

NCc1ccccc1 [benzylamine]
potentiation by OMF of the cell killing effect of the ROS inducer (GBM cells [2]; 4 h exposure to OMF, benzylamine): predictions are confirmed

CO[C@H](C/C=C\C=C\CC/C=C/C[C@H](C)/C=C/C(=C\C(=O)O)CC(=O)O)/C(C)=C\C=C(/C)C(=O)O [bongkrekic acid]
steady state mitochondrial electron flux, % of that seen in absence of bongkrekic acid (DIPG cells; 2×10^6/ml DIPG cells in glucose supplemented PBS): 55%
OMF-induced permeability transition (increase in respiration rate) (DIPG cells; repeated OMF stimulation cycles): no increase in rate indicative of the permeability transition; also recorded: blocking the permeability
mitochondrial 'State 4' flux [3]: inhibits
oncoscillator-induced permeability transition ([3]; OMF stimulation): completely abolishes
OMF-induced increase in O2 uptake rate (MPT) [4]: abolished; also recorded: blocks the permeability
